# US9687522B2, “Methods of treating a subject afflicted with an autoimmune disease using predictive biomarkers of clinical response to glatiramer acetate therapy in multiple sclerosis” (TEVA PHARMACEUTICAL INDUSTRIES, LTD., priority 2010, dated 2017)
# What was measured:
# PBMC = test: Lymphoproliferation assay (3H-thymidine) of ex-vivo PBMC; type: cell-based, human
# Procedure: (§1) Approximately 60 cc of blood was obtained by venipuncture from each MS patient pre-treatment and at successive time points during treatment (3 months, 6 months, 9-12 months and 24 months). PBMC were purified using Ficoll-Hypaque gradients as described in the supplier's protocol (ICN Biomedicals Inc. Ohio, USA). Samples from collaborating centers were sent via overnight FedEx™ delivery at room temperature and processed immediately upon arrival.
# 2×10^5 PBMC/well were seeded in 96 well U-bottom micro titer plate in the absence of antigen (unstimulated condition) (US) or the presence of GA at 40 and 100 μg/ml (Teva Pharmaceutical Industries, Ltd., Israel), tetanus toxoid (TT 5 μg) obtained from UMASS (University of Mass, Worcester, Mass.). The latter was used as a control antigen. Supernatants were collected from cultured cells at days 1, 3 and 5 for various assays. After 5 days, 1 μCi ^3H-thymidine was added. Cells were harvested 18 hours later using TOMTEC cell harvester (TOMTEC, Hamden Conn.). Incorporated radioactivity was measured using a liquid Scintillation counter (Wallac MicroBeta Trilux, PerkinElmer, Boston, Mass.).
# TNF-α = test: Serum TNF-α by ELISA in GA-treated MS patients; type: in vivo, human
# Excerpt: as §1
# (§2) Interleukin-18 and caspase-1 levels were detected by human ELISA kits (Sandwich ELISA, Bender Nedaystems, USA). The sensitivity of the ELISA was 9.2 and 3.3 pg/ml for IL-18 and caspase-1 respectively. TGF-β, TNF-α, IL-4, IFN-γ, IL-17 and IL-10 levels were detected by human ELISA kits from ebioscience (San Diego Calif., 92121 USA). The sensitivity of the ebioscience kits were 60 pg/ml, 4 pg/ml, 2 pg/ml, 4 pg/ml, 4 pg/ml and 2 pg/ml respectively. BDNF was detected by the Human BDNF ELISA kit from Chemicon International (catalog #CYT306). The sensitivity of the BDNF ELISA was 7.8 pg/ml. […] Duplicates should be within 20% of the mean.
# TGF-β = test: Serum TGF-β by ELISA in GA-treated MS patients; type: in vivo, human
# Excerpt: as §1, §2
# IL-10 = test: Serum IL-10 by ELISA in GA-treated MS patients; type: in vivo, human
# Excerpt: as §1, §2
# IL-4 = IL-4 ELISPOT in ex-vivo PBMC of GA-treated MS patients; type: cell-based, human; design: unit not given here; settings: CD3/CD28 stimulated PBMC
# Excerpt: as §1
# Human IFN-γ (Th1 indicator) and IL-4 (Th2 indicator) were measured by the ELISPOT assay according to the manufacturer's protocol (BD Biosciences, San Diego, Calif., USA). Briefly, ELISPOT plates (PVDF plate, Millipore Corporation, MA, USA) were coated with 100 μl/well of 5 μg/ml capture antibody at 4° C. over night. The plates were then washed with PBS, and incubated with 200 μl/well of blocking solution (culture medium) for 2 hours. PBMC (2×10^5 cells/well for IFN-γ and 4×10^5 cells/well for IL-4 detection) and antigen (GA 40 and 100 μg/ml, TT 5 μg/ml, CD3Ab (2.5 μg/ml)/CD28 Ab (1 μg/ml)) was added and cultured overnight at 37° C. in a 5% CO2 incubator. Samples were tested in triplicate wells in response to each antigen. After overnight culture, the plates were washed twice with deionized water and three times with PBS, then incubated with 100 μl of 2.0 μg/ml biotinylated antibody for 2 hours at room temperature. The plates were then washed three times with wash buffer (0.05% Tween-20 PBS), and incubated with 100 μl of 1:100 dilution of Avidin-HRP for 1 hour at room temperature and washed three times with wash buffer. Finally 100 μl of AEC (3-amino-9-ethyl-carbazole) substrate was added and the reaction was stopped by washing plates with distilled water. Spots were counted and analyzed by CTL Analyzers LLC ELISPOT Plate Reader (Cleveland, Ohio, USA).
# caspase-1 = test: Serum caspase-1 by ELISA in GA-treated MS patients; type: in vivo, human
# Excerpt: as §1, §2
# [1] = test system: class II MHC molecules of mouse and human origin; settings: cited from earlier work
# RRMS subjects = settings: cited from earlier work
# [2] = GA 20 mg, largest controlled study
substance,measurement,setting,value
Glatiramer acetate [GA],ex-vivo PBMC proliferative response over the course of GA treatment,"PBMC; antigens GA 40 and 100 μg/ml, TT 5 μg/ml, ΔCPM",initial increase in the proliferative response to GA and TT at 3 months during treatment followed by a decline after 6 months of treatment
same,"PBMC proliferation, GA-R versus GA-HR/NR","PBMC; before or during treatment at 3, 6, 12 months or 2 years, p >0.05",no difference in PBMC proliferation to GA or TT between GA-R and GA-HR/NR
same,Serum TNF-α level,"TNF-α; HR, 3 mo",56 ± 5.0 pg/mL
same,Serum TNF-α level,"TNF-α; HR, 6 mo",55 ± 7.0 pg/mL
same,Serum TNF-α level,"TNF-α; HR, 9-12 mo",59 ± 5.18 pg/mL
same,Serum TNF-α level,"TNF-α; HR, 24 mo",52.4 ± 9.64 pg/mL
same,Serum TNF-α level,"TNF-α; HR, Pre-Rx",51 ± 3.0 pg/mL
same,Serum TNF-α level,"TNF-α; R, 3 mo",47 ± 3.3 pg/mL
same,Serum TNF-α level,"TNF-α; R, 6 mo",44 ± 4.6 pg/mL
same,Serum TNF-α level,"TNF-α; R, 9-12 mo",54 ± 4.24 pg/mL
same,Serum TNF-α level,"TNF-α; R, 24 mo",50.13 ± 1.5 pg/mL
same,Serum TNF-α level,"TNF-α; R, Pre-Rx",57 ± 3.6 pg/mL
same,"Δ TNF-alpha 6 months, Median (Non-Responders)","TNF-α; serum, change from baseline",1
same,"Δ TNF-alpha 6 months, Median (Responders)","TNF-α; serum, change from baseline",−14
same,Serum TGF-β level,"TGF-β; HR/NR, 3 mo",1921 ± 150 pg/mL
same,Serum TGF-β level,"TGF-β; HR/NR, 6 mo",1723 ± 147 pg/mL
same,Serum TGF-β level,"TGF-β; HR/NR, 9-12 mo",1727 ± 97 pg/mL
same,Serum TGF-β level,"TGF-β; HR/NR, 24 mo",1844 ± 53 pg/mL
same,Serum TGF-β level,"TGF-β; HR/NR, Pre-Rx",1796 ± 95 pg/mL
same,Serum TGF-β level,"TGF-β; R, 3 mo",1908 ± 70 pg/mL
same,Serum TGF-β level,"TGF-β; R, 6 mo",1968 ± 75 pg/mL
same,Serum TGF-β level,"TGF-β; R, 9-12 mo",1901 ± 64 pg/mL
same,Serum TGF-β level,"TGF-β; R, 24 mo",1983 ± 93 pg/mL
same,Serum TGF-β level,"TGF-β; R, Pre-Rx",1774 ± 48 pg/mL
same,Serum IL-10 level,"IL-10; HR/NR, 3 mo",40 ± 7.0 pg/mL
same,Serum IL-10 level,"IL-10; HR/NR, 6 mo",37 ± 8.3 pg/mL
same,Serum IL-10 level,"IL-10; HR/NR, 9-12 mo",40 ± 7.0 pg/mL
same,Serum IL-10 level,"IL-10; HR/NR, 24 mo",37.6 ± 5 pg/mL
same,Serum IL-10 level,"IL-10; HR/NR, Pre-Rx",38 ± 9 pg/mL
same,Serum IL-10 level,"IL-10; R, 3 mo",47 ± 8.1 pg/mL
same,Serum IL-10 level,"IL-10; R, 6 mo",67 ± 11 pg/mL
same,Serum IL-10 level,"IL-10; R, 9-12 mo",69.8 pg/mL
same,Serum IL-10 level,"IL-10; R, 24 mo",56 ± 18 pg/mL
same,Serum IL-10 level,"IL-10; R, Pre-Rx",32 ± 4.5 pg/mL
same,"Δ IL-10 6 months, Median (Non-Responders)","IL-10; serum, change from baseline",−1.5
same,"Δ IL-10 6 months, Median (Responders)","IL-10; serum, change from baseline",15
same,"Δ IL-10 9 months, Median (Non-Responders)","IL-10; serum, change from baseline",−2
same,"Δ IL-10 9 months, Median (Responders)","IL-10; serum, change from baseline",42
same,"Δ IL-10 24 months, Median (Non-Responders)","IL-10; serum, change from baseline",1
same,"Δ IL-10 24 months, Median (Responders)","IL-10; serum, change from baseline",29
same,IL-4 expression (ELISPOT),"IL-4; HR/NR, 3 mo",14 ± 4
same,IL-4 expression (ELISPOT),"IL-4; HR/NR, 6 mo",20 ± 6
same,IL-4 expression (ELISPOT),"IL-4; HR/NR, 9-12 mo",23 ± 5
same,IL-4 expression (ELISPOT),"IL-4; HR/NR, 24 mo",21 ± 3.5
same,IL-4 expression (ELISPOT),"IL-4; HR/NR, Baseline",39 ± 9
same,IL-4 expression (ELISPOT),"IL-4; R, 3 mo",44 ± 7.4
same,IL-4 expression (ELISPOT),"IL-4; R, 6 mo",45 ± 7.3
same,IL-4 expression (ELISPOT),"IL-4; R, 9-12 mo",39 ± 5.8
same,IL-4 expression (ELISPOT),"IL-4; R, 24 mo",36 ± 7.2
same,IL-4 expression (ELISPOT),"IL-4; R, Baseline",35 ± 5.9
same,Serum caspase-1 level,"caspase-1; HR/NR, 3 mo",284 ± 35 pg/mL
same,Serum caspase-1 level,"caspase-1; HR/NR, 6 mo",302 ± 42 pg/mL
same,Serum caspase-1 level,"caspase-1; HR/NR, 9-12 mo",255 ± 21 pg/mL
same,Serum caspase-1 level,"caspase-1; HR/NR, 24 mo",276 ± 7 pg/mL
same,Serum caspase-1 level,"caspase-1; HR/NR, Pre-Rx",300 ± 29 pg/mL
same,Serum caspase-1 level,"caspase-1; R, 3 mo",279 ± 23 pg/mL
same,Serum caspase-1 level,"caspase-1; R, 6 mo",187 ± 21 pg/mL
same,Serum caspase-1 level,"caspase-1; R, 9-12 mo",288 ± 12 pg/mL
same,Serum caspase-1 level,"caspase-1; R, 24 mo",282 ± 11 pg/mL
same,Serum caspase-1 level,"caspase-1; R, Pre-Rx",325 ± 26 pg/mL
same,"Δ Caspace 6 months, Median (Non-Responders)","caspase-1; serum, change from baseline",−19
same,"Δ Caspace 6 months, Median (Responders)","caspase-1; serum, change from baseline",−142.5
same,binding to class II MHC molecules,[1],binds promiscuously and with high affinity
same,median cumulative number of Gd-enhancing lesions,"RRMS subjects; 20 mg group, over 9 months of treatment",11 lesions
same,relapse rate,RRMS subjects; [2],1.34
same,relapse rate reduction versus placebo,RRMS subjects; [2],32%
same,tolerability,RRMS subjects; daily standard dose of 20 mg,generally well tolerated
